Laboratory results from patent US11981661B2, “Heterocyclic compounds” (Hoffmann-La Roche Inc., priority 2020, dated 2024).

Biological target: T1, MAGL (Homo sapiens, UniProt Q99685)
T1 sequence (Q99685 1-303): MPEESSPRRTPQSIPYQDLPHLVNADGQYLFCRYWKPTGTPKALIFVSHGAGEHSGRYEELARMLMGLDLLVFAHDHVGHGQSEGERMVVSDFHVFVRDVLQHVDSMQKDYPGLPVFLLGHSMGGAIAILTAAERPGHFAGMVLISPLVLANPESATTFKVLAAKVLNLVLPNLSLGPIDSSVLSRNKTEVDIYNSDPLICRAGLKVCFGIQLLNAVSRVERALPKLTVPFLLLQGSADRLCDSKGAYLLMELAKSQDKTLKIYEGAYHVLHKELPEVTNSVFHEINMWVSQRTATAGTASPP
Assay: 2-AG assay (MAGL inhibitory activity, hydrolysis of 2-arachidonoylglycerol followed by mass spectrometry)
Assay type: biochemical
Settings: 50 pM MAGL, 8 μM 2-arachidonoylglycerol, 15 min preincubation, 30 min incubation at RT, concentration range 12.5 μM to 0.8 pM
Outline: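 Activity derived from the arachidonic acid/d8-arachidonic acid MS intensity ratio after acetonitrile quench. Reaction: 8 μM 2-AG substrate with 50 pM MAGL, 30 min at RT, following 15 min RT compound preincubation; buffer 50 mM TRIS, 1 mM EDTA, 0.01% Tween; final compound range 12.5 μM to 0.8 pM.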

Row | SMILES | IC50 [nM]
1 | O=C1N[C@H](CCC(=O)N2CC3(CC(n4cnc(C5CC5)n4)C3)C2)CO1 [Example 185, (4R)-4-[3-[6-(3-Cyclopropyl-1,2,4-triazol-1-yl)-2-azaspiro [3.3]heptan-2-yl]-3-oxo-propyl] oxazolidin-2-one] | 464
2 | O=C1CCC(CCC(=O)N2CC(c3ccc(C4(C(F)(F)F)CC4)cc3)C2)N1 (single isomer, unassigned; (-)) [Example 5, (−)-5-[3-Oxo-3-[3-[4-[1-(trifluoromethyl)cyclopropyl]phenyl]azetidin-1-yl]propyl]pyrrolidin-2-one] | 627
3 | CC(C)(C)c1ccc(C2CN(C(=O)CC[C@@H]3COC(=O)N3)C2)cn1 [Example 91, (4R)-4-[3-[3-(6-tert-Butyl-3-pyridyl)azetidin-1-yl]-3-oxo-propyl]oxazolidin-2-one] | 357
4 | O=C(CCCc1cnn[nH]1)N1CC(c2ccc(N3CCC(C(F)(F)F)C3)nc2)C1 (racemic) [Example 45, rac-4-(1H-Triazol-5-yl)-1-[3-[6-[3-(trifluoro-methyl)pyrrolidin-1-yl]-3-pyridyl]azetidin-1-yl]butan-1-one] | 321
5 | O=C1CCC(CCC(=O)N2C[C@@H]3CN(Cc4ccc(C(F)(F)F)cc4F)C[C@H]3C2)N1 (single isomer, unassigned; (+)) [Example 12] | 2310
6 | O=C1N[C@H](CCC(=O)N2CC(c3ccc(N4CCC5(C4)CC5(F)F)nc3)C2)CO1 (stereo partly drawn) [Example 173, (4R)-4-[3-[3-[6-(2,2-Difluoro-5-azaspiro[2.4]heptan-5-yl)-3-pyridyl]azetidin-1-yl]-3-oxo-propyl]oxazolidin-2-one] | 45
7 | O=C1COCC(CCC(=O)N2CC(OCc3ccc(C(F)(F)F)cc3F)C2)N1 (single isomer, unassigned; (+)) [Example 51, (+)-5-[3-[3-[[2-Fluoro-4-(trifluoromethyl)phenyl]methoxy]azetidin-1-yl]-3-oxo-propyl]morpholin-3-one] | 287
8 | O=C1N[C@H](CCC(=O)N2CC(c3ccc(N4CCC(O)(C(F)(F)F)C4)nc3)C2)CO1 (stereo partly drawn) [Example 146, (4R)-4-[3-[3-[6-[3-Hydroxy-3-(trifluoro-methyl)pyrrolidin-1-yl]-3-pyridyl]azetidin-1-yl]-3-oxo-propyl] oxazolidin-2-one] | 137
9 | O=C1N[C@H](CCC(=O)N2CC3(CCN(S(=O)(=O)c4ccc(C(F)(F)F)cc4F)CC3)C2)CO1 [Example 143, (4R)-4-[3-[7-[2-Fluoro-4-(trifluoromethyl)phenyl]sulfonyl-2,7-diazaspiro [3.5]nonan-2-yl]-3-oxo-propyl]oxazolidin-2-one] | 190
10 | CS(=O)(=O)c1cc(Cl)ccc1-c1ccc(C2CN(C(=O)CCC3CNC(=O)N3)C2)cc1 (stereo not shown) [Example 216, 4-[3-[3-[4-(4-Chloro-2-methylsulfonyl-phenyl)phenyl]azetidin-1-yl]-3-oxo-propyl]imidazolidin-2-one] | 68
11 | O=C(CCc1cnn[nH]1)N1CC(OCc2ccc(C(F)(F)F)cc2F)C1 [Example 36, 1-(3-((2-Fluoro-4-(trifluoromethyl)benzyl)oxy)azetidin-1-yl)-3-(1H-1,2,3-triazol-5-yl)propan-1-one] | 4030
12 | O=C1N[C@H](CCC(=O)N2CC3(CN(Cc4ccc(S(=O)(=O)C(F)(F)F)cc4)C3)C2)CO1 [Example 187, (4R)-4-[3-Oxo-3-[6-[[4-(trifluoro-methylsulfonyl)phenyl]methyl]-2,6-diazaspiro [3.3]heptan-2-yl]propyl] oxazolidin-2-one] | 206
13 | O=C1CCC(CCC(=O)N2CC(c3ccc(-c4ccc(F)cc4F)cc3)C2)N1 (single isomer, unassigned; (-)) [Example 9, (−)-5-[3-[3-[4-(2,4-Difluorophenyl)phenyl]azetidin-1-yl]-3-oxo-propyl]pyrrolidin-2-one] | 550
14 | O=C1N[C@H](CCC(=O)N2CC(c3ccc(N4CCC(C(F)(F)F)C4)cn3)C2)CO1 (stereo partly drawn) [Example 103, (4R)-4-[3-Oxo-3-[3-[5-[3-(trifluoro-methyl)pyrrolidin-1-yl]-2-pyridyl]azetidin-1-yl]propyl]oxazolidin-2-one] | 54
15 | CC1(CCC(=O)N2CC(c3ccc(C4(C(F)(F)F)CC4)cc3)C2)CCC(=O)N1 (single isomer, unassigned) [Example 16, (+)- or (−)-5-Methyl-5-[3-oxo-3-[3-[4-[1-(trifluoromethyl)cyclopropyl]phenyl]azetidin-1-yl]propyl]pyrrolidin-2-one] | 213

Now those with a lower IC50, led by results:

Row | IC50 [nM] | SMILES
16 | 43 | O=C1N[C@H](CCC(=O)N2CC(c3ncc(-c4ccc(Cl)cc4F)cn3)C2)CO1 [Example 112, (4R)-4-[3-[3-[5-(4-Chloro-2-fluoro-phenyl)pyrimidin-2-yl]azetidin-1-yl]-3-oxo-propyl]oxazolidin-2-one]
17 | 37 | O=C1N[C@H](CCC(=O)N2CC(c3ccc([C@H]4C[C@@H](C(F)(F)F)C4)nc3)C2)CO1 [Example 202, Cis-(4R)-4-[3-Oxo-3-[3-[6-[3-(trifluoromethyl)cyclobutyl]-3-pyridyl]azetidin-1-yl]propyl]oxazolidin-2-one]
18 | 25 | CS(=O)(=O)c1cc(Cl)ccc1-c1ccc(C2CN(C(=O)NCC3COC(=O)N3)C2)cc1 (stereo not shown) [Example 212, 3-[4-(4-Chloro-2-methylsulfonyl-phenyl)phenyl]-N-[(2-oxooxazolidin-4-yl)methyl]azetidine-1-carboxamide]
19 | 24 | CC(C)(C)Cc1nnc(C23CC(C4CN(C(=O)CC[C@@H]5COC(=O)N5)C4)(C2)C3)o1 [Example 165, (4R)-4-[3-[3-[3-[5-(2,2-Dimethyl-propyl)-1,3,4-oxadiazol-2-yl]-1-bicyclo[1.1.1]pentanyl]azetidin-1-yl]-3-oxo-propyl] oxazolidin-2-one]
20 | 16 | O=C1N[C@H](CCC(=O)N2CC(c3ccc(N4CCC(C(F)(F)F)C4)nc3)C2)CO1 (single isomer, unassigned) [Example 206]
21 | 13 | O=C1N[C@H](COC(=O)N2CC(C#Cc3ccccc3C(F)F)C2)CO1 [Example 61, [(4S)-2-Oxooxazolidin-4-yl]methyl 3-[2-[2-(difluoromethyl)phenyl]ethynyl] azetidine-1-carboxylate]
22 | 12 | CS(=O)(=O)c1cc(Cl)ncc1-c1ccc(C2CN(C(=O)CC[C@@H]3COC(=O)N3)C2)cc1 [Example 118, (4R)-4-[3-[3-[4-(6-Chloro-4-methylsulfonyl-3-pyridyl)phenyl]azetidin-1-yl]-3-oxo-propyl] oxazolidin-2-one]
23 | 9 | O=C1N[C@H](CCC(=O)N2CC3(CC(Cc4ccc(C(F)(F)F)nc4)C3)C2)CO1 [Example 125, (4R)-4-[3-Oxo-3-[6-[[6-(trifluoro-methyl)-3-pyridyl]methyl]-2-azaspiro[3.3]heptan-2-yl]propyl] oxazolidin-2-one]
24 | 2 | COCCN(c1ccc(C2CN(C(=O)CC[C@@H]3COC(=O)N3)C2)cc1)c1cccnc1 [Example 96, (4R)-4-[3-[3-[4-[2-Methoxyethyl(3-pyridyl)amino]phenyl]azetidin-1-yl]-3-oxo-propyl]oxazolidin-2-one]
25 | 2 | O=C1N[C@H](COC(=O)N2CC3(CC(Cc4ccc(F)cc4F)C3)C2)CO1 [Example 57, [(4S)-2-Oxooxazolidin-4-yl]methyl 6-[(2,4-difluorophenyl)methyl]-2-azaspiro[3.3]heptane-2-carboxylate]
